Bounds are passed on as bounds.

Format in all cases: cell-based
In assay [1] the target is T1, SMARCA2 (Homo sapiens, UniProt P51531). Put plainly: MSD SMARCA2 degradation in A549 cell line. Particulars: for Dmax: A549, A549 cells; for Dmax / DC50: 24 h; for DC50 / SMARCA2 MSD A549 degradation 24 h: Average Dmax %: A549 cells; for DC50: read-out: SMARCA2 MSD A549 degradation 24 h: Average external-Abs DC50. How it is done:
Example 10. MSD SMARCA2 Degradation in A549 Cell Line
Cells were seeded into 96-well plates (A549 cells: 2×10^4 cells/well/100 ul media) and incubated overnight. The next day, 200 nL compound were added into the intermediate plate with Echo (Labcyte 550) from source plate containing a 3-fold serial dilution from top concentration of 1 mM. The culture medium was changed with 8 0ul of fresh medium and 80 μL of 2× compound solution was added into the well to make a final concentration of 1000 nM, 333.3 nM, 111.1 nM, 37.04 nM, 12.35 nM, 4.115 nM, 1.372 nM, 0.457 nM, 0.152 nM and 0 nM (DMSO). The wells were mixed and then incubated for 24 hours. The media was aspirated from the cultures and 60 ul pre-chilled PIPA lysis buffer (Boston BioProducts BP-115D) with protease/phosphatase inhibitor (Roche 05892791001/Roche 04906837001) was added into the well to lyze the cells for 20 minutes at 4° C. The MSD plate (L15XA) was coated with 40 uL cell lysate and incubated at 4° C. overnight. The next day, the plate was washed three times with TBST (CST #9997S), 150 ul/well. The MSD plates was blocked with 150 ul blocking buffer per well and shaked for 1 hr at RT, 600 rpm. The blocking buffer was 3% Blocker A (MSD, R93BA-4) in TBST. The MSD plate was washed three times with 150 uL/well of TBST and 25 ul/well of detection antibody (Rabbit anti-SMARCA2/BRM antibody, 100 μg/mL, ab223735) was added at final concentration of 1 μg/mL diluted in 1% Blocking buffer and shaken for 1 hour at RT, 600 rpm. The MSD plate was washed three times with 150 ul/well of TBST and 25 ul/well of SULFO-TAG anti-rabbit antibody (MSD, R32AB-1) was added at final concentration of 1 μg/ml diluted in 1% Blocking buffer and shaken for 1 hour at RT, 600 rpm. The MSD plate was washed three times with 150 uL/well of TBST and 150 ul/well of 2× MSD reading buffer diluted from 4× (MSD, R92TC-2) with water was added. Lastly, the MSD instrument was read.
The letter codes for SMARCA2 degradation potency (DC50) include: A (<10 nM), B (10-50 nM), C (>50-100 nM), and D (>100 nM). The letter codes for the percentage of SMARCA degradation after 24 hours (Dmax %) include: A (>90% degradation), B (>70-90% degradation), C (50-70% degradation), and D (<50% degradation).

In assay [2] the target is T1, SMARCA2. Nature of the assay: SMARCA2 Western blot degradation in MV4-11 cells. Further details: SMARCA2/SMARCA4 protein degradation selectivity in MV4-11 cells; endogenous in cells; host or cells: MV4-11. To be noted: for Dmax: MV4-11, MV4-11 cells, read-out: SMARCA2 MSD MV411 degradation 24 h: average Dmax %; for Dmax / DC50 / SMARCA2 MSD MV411 degradation 24 h: average Dmax %: 24 h; for DC50 / Selectivity in MV411 / SMARCA2 MSD MV411 degradation 24 h: average Dmax %: MV4-11 cells; for DC50: read-out: SMARCA2 MSD MV411 degradation 24 h: Mean external-Abs DC50; for Selectivity in MV411: SMARCA2/4 selectivity. On the technique in general: A western blot detects proteins with antibodies after separation by electrophoresis.

The target in assay [3] is T2, SMARCA4 (Homo sapiens, UniProt P51532).
T2 construct: SMARCA2/SMARCA4 protein degradation selectivity in MV4-11 cells; endogenous in cells; host or cells: MV4-11
T2 sequence (P51532 whole entry): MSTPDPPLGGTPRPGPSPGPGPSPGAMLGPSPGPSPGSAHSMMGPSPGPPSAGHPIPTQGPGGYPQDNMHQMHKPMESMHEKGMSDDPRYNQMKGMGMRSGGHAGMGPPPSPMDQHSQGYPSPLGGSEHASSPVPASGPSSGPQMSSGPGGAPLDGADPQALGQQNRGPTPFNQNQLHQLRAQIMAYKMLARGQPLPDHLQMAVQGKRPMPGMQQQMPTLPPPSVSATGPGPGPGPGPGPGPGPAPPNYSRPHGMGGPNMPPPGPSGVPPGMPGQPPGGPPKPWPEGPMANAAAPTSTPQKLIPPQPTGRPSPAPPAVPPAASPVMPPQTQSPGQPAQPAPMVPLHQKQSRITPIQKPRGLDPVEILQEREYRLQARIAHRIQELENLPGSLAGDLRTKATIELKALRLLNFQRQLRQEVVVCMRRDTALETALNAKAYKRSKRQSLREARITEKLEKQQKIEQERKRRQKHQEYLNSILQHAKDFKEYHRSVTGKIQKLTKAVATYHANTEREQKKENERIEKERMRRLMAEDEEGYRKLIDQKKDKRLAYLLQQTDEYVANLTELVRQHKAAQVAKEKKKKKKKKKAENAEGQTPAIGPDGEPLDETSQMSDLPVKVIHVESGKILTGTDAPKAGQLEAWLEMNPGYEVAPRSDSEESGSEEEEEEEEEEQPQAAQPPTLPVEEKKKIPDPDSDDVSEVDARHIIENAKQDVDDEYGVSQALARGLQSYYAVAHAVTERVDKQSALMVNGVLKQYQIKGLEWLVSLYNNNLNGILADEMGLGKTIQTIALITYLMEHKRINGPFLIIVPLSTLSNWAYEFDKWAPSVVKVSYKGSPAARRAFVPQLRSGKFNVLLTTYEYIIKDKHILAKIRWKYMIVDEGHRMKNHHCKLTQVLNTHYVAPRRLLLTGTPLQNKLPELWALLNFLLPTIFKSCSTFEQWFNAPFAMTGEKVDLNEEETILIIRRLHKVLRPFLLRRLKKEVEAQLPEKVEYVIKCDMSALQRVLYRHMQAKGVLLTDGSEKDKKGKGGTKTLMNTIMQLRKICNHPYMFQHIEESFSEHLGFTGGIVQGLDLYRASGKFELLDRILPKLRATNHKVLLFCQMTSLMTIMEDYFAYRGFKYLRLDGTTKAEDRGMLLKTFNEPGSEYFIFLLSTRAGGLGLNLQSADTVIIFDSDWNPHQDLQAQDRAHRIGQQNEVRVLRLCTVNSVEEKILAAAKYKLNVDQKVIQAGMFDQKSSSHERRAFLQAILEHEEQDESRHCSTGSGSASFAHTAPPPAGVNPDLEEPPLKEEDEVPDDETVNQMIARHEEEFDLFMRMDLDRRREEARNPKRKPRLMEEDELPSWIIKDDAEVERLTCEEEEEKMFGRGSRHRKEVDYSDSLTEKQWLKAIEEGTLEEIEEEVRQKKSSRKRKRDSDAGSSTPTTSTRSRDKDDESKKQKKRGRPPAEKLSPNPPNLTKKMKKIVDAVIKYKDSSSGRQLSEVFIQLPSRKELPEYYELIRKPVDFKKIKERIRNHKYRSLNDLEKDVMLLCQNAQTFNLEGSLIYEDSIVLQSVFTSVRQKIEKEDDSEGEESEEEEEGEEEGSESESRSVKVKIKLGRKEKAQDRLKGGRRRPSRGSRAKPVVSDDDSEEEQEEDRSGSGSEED
Put plainly: SMARCA4 Western blot degradation in MV4-11 cells. Particulars: for Dmax: MV4-11, MV4-11 cells, read-out: SMARCA4 MSD MV411 degradation 24 h: average Dmax %; for Dmax / DC50: 24 h; for DC50: read-out: SMARCA4 MSD MV411 degradation 24 h: Mean external-Abs DC50. Here is the method: Example 11. SMARCA2 and SMARCA4 Western Blot MV4-11 Degradation
Cells were seeded into 6-well plates (MV4-11:4×10^6 cells/well/1 ml) and 1 ml of 2× compound solution was added into the well to make the final concentration and the plates were mixed well and incubated for 24 hours (No cytotoxicity was observed). The cell were collected with media and spun at 3000 rpm for 5 minutes. The supernatant was aspirated and the well and the cells were washed with cold PBS once and combined for centrifugation again; the supernatant aspirated again. 200 uL pre-chilled RIPA lysis buffer (Boston BioProducts BP-115D) with protease/phosphatase inhibitor (Roche 05892791001/Roche 04906837001) was directly added into the tube to lyze the cells for 20 minutes on ice. The cell lysate were collected into EP tubes and spun at 13000 rpm for 20 minutes and 72 uL supernatant was transferred to a fresh EP tube containing 18 μL of 5× loading buffer (Beyotime Bio P0015) to make the loading samples. The samples were heated to 100° C. for 10 minutes and cooled to RT and microcentrifuged. 20 μL of samples were loaded onto SDS-PAGE gel (Novex, WG1402BOX) and the gel was run at 80 V for 20 minutes and 120 V for 1.5 hours. The samples were electrotransfer to a NC membrane using wet-transfer method with 250 mA for 2.5 hours. The membrane was blocked with LICOR blocking buffer (LI COR,927-50000) for 1 hour. The membrane was washed three times with TBST(CST #9997S), 5 minutes each. Incubation was performed with primary antibody prepared in blocking buffer with 0.1% Tween-20 (Solarbio, P8220) at 4° C. overnight (Anti-SMARCA2/BRM antibody (ab15597) 1:500; Anti-BRG1 antibody [EPR3912](ab108318) 1:1000; Rabbit anti-Bafl80 antibody [EPR15860](Abcam,ab196022) 1:1000; mouse anti-beta-Actin (8H10D10) (CST #3700) 1:10000). The membrane was washed three times with TBST, 5 minutes each. Incubation with secondary antibody was performed for 1 hour at RT (anti-rabbit IgG (Licor,926-32211) 1:5000; anti-mouse IgG (LI-COR, 926-68070) 1:5000). The membrane was washed three times with 5 minutes each and lastly the LiCOR was read.
The letter codes for SMARCA2/4 degradation potency (DC50) include: A (<1 nM), B (1-10 nM), C (>10-100 nM), and D (>100 nM). The letter codes for the percentage of SMARCA2/4 degradation after 24 hours (Dmax %) include: A (>90% degradation), B (>70-90% degradation), C (50-70% degradation), and D (<50% degradation). The letter codes of SMARCA2/4 selectivity include: A (>500 fold), B (>100-500 fold), C (10-100 fold), and D (<10 fold). Table 8. SMARCA2/4 Selectivity Results

T1 sequence (P51531 whole entry): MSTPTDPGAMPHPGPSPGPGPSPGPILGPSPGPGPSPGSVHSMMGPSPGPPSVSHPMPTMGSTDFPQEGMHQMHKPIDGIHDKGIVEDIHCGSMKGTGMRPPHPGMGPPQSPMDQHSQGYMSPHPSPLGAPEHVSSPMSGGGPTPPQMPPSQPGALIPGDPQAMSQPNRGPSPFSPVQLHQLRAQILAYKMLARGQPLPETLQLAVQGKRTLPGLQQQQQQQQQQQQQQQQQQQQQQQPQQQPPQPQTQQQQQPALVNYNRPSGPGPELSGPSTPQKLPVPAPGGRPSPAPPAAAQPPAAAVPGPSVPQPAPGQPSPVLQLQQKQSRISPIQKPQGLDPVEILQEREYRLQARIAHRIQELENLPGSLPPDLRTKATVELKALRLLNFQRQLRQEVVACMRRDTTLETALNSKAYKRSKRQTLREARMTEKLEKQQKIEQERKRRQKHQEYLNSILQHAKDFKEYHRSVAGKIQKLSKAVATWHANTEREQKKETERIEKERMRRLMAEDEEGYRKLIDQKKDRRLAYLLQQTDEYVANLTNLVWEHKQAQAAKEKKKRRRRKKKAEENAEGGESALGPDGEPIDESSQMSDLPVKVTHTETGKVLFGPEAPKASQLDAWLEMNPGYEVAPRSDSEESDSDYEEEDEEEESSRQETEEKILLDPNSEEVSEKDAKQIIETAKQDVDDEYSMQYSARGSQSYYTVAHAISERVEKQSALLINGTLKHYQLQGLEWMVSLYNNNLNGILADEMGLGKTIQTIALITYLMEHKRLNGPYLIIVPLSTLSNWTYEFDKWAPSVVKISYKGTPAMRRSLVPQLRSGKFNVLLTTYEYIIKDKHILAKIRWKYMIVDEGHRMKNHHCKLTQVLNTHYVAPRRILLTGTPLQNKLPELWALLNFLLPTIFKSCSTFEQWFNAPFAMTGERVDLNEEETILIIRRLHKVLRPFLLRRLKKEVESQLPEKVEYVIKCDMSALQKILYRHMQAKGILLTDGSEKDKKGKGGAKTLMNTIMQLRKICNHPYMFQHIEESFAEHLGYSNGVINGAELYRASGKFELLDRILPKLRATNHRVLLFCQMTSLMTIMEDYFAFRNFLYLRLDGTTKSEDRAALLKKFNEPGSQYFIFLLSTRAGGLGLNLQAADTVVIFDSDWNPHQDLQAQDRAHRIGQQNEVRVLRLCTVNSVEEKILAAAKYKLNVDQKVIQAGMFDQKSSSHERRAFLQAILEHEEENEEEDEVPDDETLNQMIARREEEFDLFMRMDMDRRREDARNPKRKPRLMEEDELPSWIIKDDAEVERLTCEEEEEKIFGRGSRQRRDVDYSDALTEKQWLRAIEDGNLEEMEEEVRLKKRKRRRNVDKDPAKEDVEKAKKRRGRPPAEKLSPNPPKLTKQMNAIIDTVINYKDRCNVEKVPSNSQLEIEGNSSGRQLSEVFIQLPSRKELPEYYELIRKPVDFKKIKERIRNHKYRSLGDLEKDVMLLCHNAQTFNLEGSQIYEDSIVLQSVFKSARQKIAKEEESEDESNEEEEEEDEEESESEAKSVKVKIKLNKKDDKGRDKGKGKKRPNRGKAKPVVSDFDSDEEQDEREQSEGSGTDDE

One may read the Dmax as the largest share of the target that was removed. As usually defined, the DC50 is the concentration at which degradation of the target reaches its halfway point. Regarding `C#Cc1ccc(CNC(=O)[C@@H]2C[C@@H](O)CN2C(=O)[C@H](NC(=O)N2CC3(CC(N4CCC(c5cnc(N6CCc7[nH]c8nnc(-c9ccccc9O)cc8c7[C@H]6C)nc5)CC4)C3)C2)C(C)(C)CCOCC(=O)O)cc1` (single isomer, unassigned) [I-263], the greatest degradation seen (Dmax) in assay [1], in assay [2] and in assay [3] was less than 50% throughout. In addition, the DC50 in assay [1], in assay [2] and in assay [3] (MV4-11 cells) was greater than 100 nM throughout. In addition, in assay [2], the “Selectivity in MV411” value is recorded as “C (C (10-100 fold))”.
Consider `C#Cc1ccc(CNC(=O)[C@@H]2C[C@@H](O)CN2C(=O)[C@@H](NC(=O)[C@H]2CCC3(CC2)C[C@H](N2CCC(c4cnc(N5CCN6c7cc(-c8ccccc8O)nnc7NC[C@H]6C5)nc4)CC2)C3)C(C)(C)CCO)cc1` (single isomer, unassigned) [I-131], for which the Dmax in assay [1] was greater than 90%; in assay [2] it was greater than 90%; in assay [3] it was 50 to 70%. Further, the values for the half-maximal degradation concentration (DC50) in assay [1], in assay [2] and in assay [3] (MV4-11 cells) were 10 to 50 nM, less than 1 nM and 10 to 100 nM, respectively. In assay [2], the “Selectivity in MV411” value is listed as “C (C (10-100 fold))”.
Turning to `C#Cc1ccc([C@H](CCO)NC(=O)[C@@H]2C[C@@H](O)CN2C(=O)[C@@H](NC(=O)N2CC3(CC(N4CCC(c5cnc(N6CCc7[nH]c8nnc(-c9ccccc9O)cc8c7[C@H]6C)nc5)CC4)C3)C2)C(C)(C)C)cc1` [I-169], the figures for the Dmax in assay [1], in assay [2] and in assay [3] were greater than 90%, 70 to 90% and less than 50%, respectively. The DC50 in assay [1] was 10 to 50 nM; in assay [2], 1 to 10 nM; in assay [3] (MV4-11 cells), greater than 100 nM. Also, the “Selectivity in MV411” value in assay [2] is recorded as “B (B (>100-500 fold))”.
`Cc1ncsc1-c1ccc(CNC(=O)[C@@H]2C[C@@H](O)CN2C(=O)[C@@H](NC(=O)[C@H]2CC3(C2)C[C@H](N2CCN(c4cnc(N5CCN6c7cc(-c8ccccc8O)nnc7NC[C@H]6C5)nc4)CC2)C3)C(C)(C)C)cc1` (some centres unmarked) [I-19]: in assay [1], the “SMARCA2 MSD A549 degradation 24 h: Average Dmax %” value is recorded as “A (A (>90% degradation))” and the half-maximal degradation concentration (DC50) was 10 to 50 nM. In assay [2], the “SMARCA2 MSD MV411 degradation 24 h: average Dmax %” value is given as “A (A (>90% degradation))”, the DC50 was in the range of 1 to 10 nM and the “Selectivity in MV411” value was “C (C (10-100 fold))”. For the same compound, in assay [3] (MV4-11 cells), the “SMARCA4 MSD MV411 degradation 24 h: average Dmax %” value is “B (B (>70-90% degradation))” and the DC50 was in the range of 10 to 100 nM.
Regarding `C#Cc1ccc(CNC(=O)[C@@H]2C[C@@H](O)CN2C(=O)[C@@H](NC(=O)C2CCC3(CC2)CC(N2CCC(c4cnc(N5CCN6c7cc(-c8ccccc8O)nnc7NC[C@H]6C5)nc4)CC2)C3)C2CCNCC2)cc1` (some centres unmarked) [I-132], the Dmax in assay [1] and in assay [2] was less than 50% each time. The 50% degradation concentration (DC50) in assay [1] and in assay [2] was greater than 100 nM each time.
Regarding `C#Cc1ccc(CNC(=O)[C@@H]2C[C@@H](O)CN2C(=O)[C@@H](NC(=O)[C@H]2CCC3(CC2)C[C@H](N2CCC(c4cnc(N5CCN6c7cc(-c8cccc(Cl)c8O)nnc7NC[C@@H]6C5)nc4)CC2)C3)C(C)(C)C)cc1` (single isomer, unassigned) [I-154], in assay [1], the “SMARCA2 MSD A549 degradation 24 h: Average Dmax %” value is recorded as “A (A (>90% degradation))” and the DC50 is greater than 100 nM. For the same compound, in assay [2], the “SMARCA2 MSD MV411 degradation 24 h: average Dmax %” value is given as “C (C (50-70% degradation))” and the DC50 lay within 10 to 100 nM.
`Cc1ncsc1-c1ccc(CNC(=O)[C@@H]2C[C@@H](O)CN2C(=O)[C@@H](NC(=O)[C@H]2CCC3(CC2)C[C@H](N2CCN(c4cnc(N5CCc6[nH]c7nnc(-c8ccccc8O)cc7c6[C@H]5C)nc4)CC2)C3)C(C)(C)C)cc1` (single isomer, unassigned) [I-112]: in assay [1], the maximal degradation (Dmax) was greater than 90% and the DC50 was in the range of 50 to 100 nM. Besides, in assay [2], the greatest degradation seen (Dmax) is 50 to 70% and the DC50 was in the range of 10 to 100 nM.
As for `C#Cc1ccc(CNC(=O)[C@@H]2C[C@@H](O)CN2C(=O)[C@@H](NC(=O)[C@H]2CCC3(CC2)C[C@H](N2CCC(c4cnc(N5CCN6c7cc(-c8cccc(Cl)c8O)nnc7NC[C@H]6C5)nc4)CC2)C3)C(C)(C)C)cc1` (single isomer, unassigned) [I-152], in assay [1], the Dmax lay within 70 to 90% and the half-maximal degradation concentration (DC50) was greater than 100 nM. Besides, in assay [2], the “SMARCA2 MSD MV411 degradation 24 h: average Dmax %” value is on record as “C (C (50-70% degradation))” and the 50% degradation concentration (DC50) was 10 to 100 nM.
For `C#Cc1ccc(CNC(=O)[C@@H]2C[C@@H](O)CN2C(=O)[C@@H](NC(=O)[C@H]2CCC3(CC2)C[C@H](N2CCC(c4cnc(N5CCN6c7cc(-c8cccc(F)c8O)nnc7NC[C@H]6C5)nc4)CC2)C3)C(C)(C)C)cc1` (single isomer, unassigned) [I-157], in assay [1], the Dmax was greater than 90% and the DC50 fell in the range of 50 to 100 nM. Besides, in assay [2], the “SMARCA2 MSD MV411 degradation 24 h: average Dmax %” value is “B (B (>70-90% degradation))” and the DC50 is 1 to 10 nM.
Regarding `C#Cc1ccc(CNC(=O)[C@@H]2C[C@@H](O)CN2C(=O)[C@@H](NC(=O)[C@H]2CCC3(CC2)C[C@H](N2CCC(c4cnc(N5CCN6c7cc(-c8cccc(Cl)c8O)nnc7NC[C@H]6C5)nc4)CC2)C3)C(C)(C)C)cc1` (single isomer, unassigned) [I-105], in assay [1], the “SMARCA2 MSD A549 degradation 24 h: Average Dmax %” value is “A (A (>90% degradation))” and the half-maximal degradation concentration (DC50) was greater than 100 nM. In addition, in assay [2], the Dmax lay within 50 to 70% and the DC50 was 10 to 100 nM.
For `Cc1cc(F)ccc1C#CCNC(=O)[C@@H]1C[C@@H](O)CN1C(=O)[C@@H](NC(=O)[C@H]1CCC2(CC1)C[C@H](N1CCC(c3cnc(N4CCN5c6cc(-c7ccccc7O)nnc6NC[C@H]5C4)nc3)CC1)C2)C(C)(C)C` (single isomer, unassigned) [I-106], the maximal degradation (Dmax) in assay [1] and in assay [2] was less than 50% each time. The DC50 in assay [1] and in assay [2] was greater than 100 nM throughout.

These data come from patent publication US20250170248A1, “SMARCA DEGRADERS AND USES THEREOF” (Kymera Therapeutics, Inc., priority 2021, published 2025).
